Assay results reported in patent publication US4005220A, “Hemostatic compositions comprising salts of substituted hydroquinone sulfonic acid” (Laboratorios del Dr. Esteve, S.A., priority 1973, dated 1977).
Entries after “also recorded” stand apart in the source; their conditions may differ.

Tests used:
[1] = Acute toxicity in mice, LD50 (method of Reed and Muench); assay type: in vivo; settings: mouse, in vivo, po
Method: (§1) 1. Acute toxicity in mice
(§2) Albino mice of 18 to 25 g. The LD50 was determined in accordance with the method of Reed and Muench.
(§3) The acute toxicity in mice was determined in accordance with the method of REED and MUENCH, in a modified form (Reed L. J. and Muench H., Am. J. Hyg., 27, 493, 1938). The effect on the average bleeding time was determined by the Roskam technique modified by Laporte (Laporte J., Chemotherapia, 3, 62, 1961).

mice = assay: as above; assay type: in vivo; settings: mice (summary table)
Method: as §1, §2, §3

[2] = Partition coefficient butanol/water
[3] = test system: average bleeding time (A.B.T.); assay: Effect on the average bleeding time (A.B.T.), Roskam technique modified by Laporte; assay type: in vivo; settings: one hour after administration, rabbits
Method: 2. Effect on the average bleeding time
as §3

[4] = test system: average bleeding time (A.B.T.); assay: Activity-time relationship of the decrease in the A.B.T.; assay type: in vivo, rabbits; settings: 5 micromols/kg
Text: 3. Activity-time relationship

capillary permeability = assay: Protective effect on the capillaries: capillary permeability, BEACH-STEINITZ method in a modified form; assay type: in vivo; settings: intraperitoneally, mice; in words
Text: 4. Protective effect on the capillaries

Compound: CC(C)(C)c1cc(O)c(S(=O)(=O)O)cc1O [cyclohexylamine (tertiary butyl)-p-dihydroxybenzenesulphonate]
- LD50 [1]: 1000 mg/kg

Compound: Ammonium (tertiary butyl)-p-dihydroxybenzenesulphonate
- LD50 (mice; i.v.): 600 mg/kg
- Partition coefficient butanol/water [2]: 0.42

Compound: Calcium (tertiary butyl)-p-dihydroxybenzenesulphonate
- LD50 (mice; p.o.): 2,337 mg/kg
- Partition coefficient butanol/water [2]: 1.36

Compound: Diethylamine (tertiary butyl)-p-dihydroxybenzenesulphonate
- Decrease in the A.B.T. in % ([3]; 0.625 micromols/kg): 7%
- Decrease in the A.B.T. in % ([3]; 1.25 micromols/kg): 25%
- Decrease in the A.B.T. in % ([3]; 2.5 micromols/kg): 34%
- Decrease in the A.B.T. in % ([3]; 5.0 micromols/kg): 42%
- Decrease in the A.B.T. in % ([3]; 7.05 (sic) micromols/kg): 49%
- Decrease in the A.B.T. in % ([3]; 10.0 micromols/kg): 55%
- % decrease in the A.B.T. ([4]; 1 hour after intravenous administration): 42%
- % decrease in the A.B.T. ([4]; 2 hours after intravenous administration): 43.5%
- % decrease in the A.B.T. ([4]; 4 hours after intravenous administration): 41.0%
- % decrease in the A.B.T. ([4]; 8 hours after intravenous administration): 34.8%
- % decrease in the A.B.T. ([4]; 16 hours after intravenous administration): 33.0%
- % decrease in the A.B.T. ([4]; 24 hours after intravenous administration): 22.5%
- % decrease in the A.B.T. ([4]; 48 hours after intravenous administration): 14.0%
- duration of effect ([4]; in words): lasts for a long time; also recorded: lasts for a markedly longer time than the products already described hitherto
- capillary permeability (capillary permeability): marked decrease in the capillary permeability
- Partition coefficient butanol/water [2]: 2.38

Compound: Sodium methyl-p-dihydroxybenzenesulphonate
- LD50 (mice; p.o.): > 1,000 mg/kg
- Partition coefficient butanol/water [2]: 0.87

Compound: lithium (tertiary butyl)-p-dihydroxybenzenesulphonate
- LD50 (mice; i.v.): 1,000 mg/kg
- Partition coefficient butanol/water [2]: 1.28
